The results in this text go back to ChEMBL document CHEMBL5576078, “Discovery of a potent, orally available furopyridine derivative as a novel selective bromodomain and extra-terminal domain (BET)-first bromodomain (BD1) inhibitor” (Bioorg Med Chem Lett, 2024).

Assay [1] deals with T1, Bromodomain-containing protein 4 (Homo sapiens, UniProt O60885). The assay can be described thus: Inhibition of BRD4 BD1 (unknown origin) by TR-FRET assay. A general note: Time-resolved FRET reads energy transfer from a long-lived donor to a nearby acceptor.
Assay [2] concerns the target T1, Bromodomain-containing protein 4. The assay can be described thus: Inhibition of BRD4 BD2 (unknown origin) by TR-FRET assay.
Assay [3] has the same target. The experiment in a line: Inhibition of BRD4 BD1 (unknown origin).
The nature of assay [4]: Inhibition of LPS induced IL-6 production in HMVEC cells. The following applies: Homo sapiens.

Some results are limits rather than exact numbers.

The IC50 is the concentration needed to halve the response being measured. A high value points to lower potency. For `C[C@@H]1CN(S(C)(=O)=O)CCN1Cc1cc2c(=O)n(C)cc(-c3nccnc3OCC3CC3)c2o1`, the figures for the IC50 in assay [1] and in assay [2] were 18 nM and 1600 nM, respectively.

Consider `C[C@@H]1CN(S(C)(=O)=O)CCN1Cc1cc2c(=O)n(C)cc(-c3cc(Cl)nn3CC3CCOCC3)c2o1`, for which the figures for the IC50 in assay [1] and in assay [2] were 180 nM and 3600 nM, respectively.

On to `C[C@@H]1CN(S(C)(=O)=O)CCN1Cc1cc2c(=O)n(C)cc(-c3nc(Cl)cn3CC3CCOCC3)c2o1`, for which the half-maximal inhibitory concentration (IC50) in assay [1] is 53 nM; in assay [2] it was greater than 10000 nM.

Take `C[C@@H]1CN(S(C)(=O)=O)CCN1Cc1cc2c(=O)n(C)cc(-c3cc(NS(C)(=O)=O)ccc3OCC3CC3)c2o1`: the values for the IC50 in assay [1] and in assay [2] were 11 nM and 20 nM, respectively.

Regarding `CC(=O)Nc1cc(-c2cn(C)c(=O)c3cc(CN4CCN(S(C)(=O)=O)C[C@H]4C)oc23)ccn1`, the IC50 in assay [1] is 63 nM; in assay [2], 650 nM; in assay [3] it was no more than 100 nM.

On to `Cc1sc2c(c1C)C(c1ccc(Cl)cc1)=N[C@@H](CC(=O)OC(C)(C)C)c1nnc(C)n1-2`, for which the IC50 in assay [4] was determined as 45 nM. In other words, the double-digit nanomolar range.

Consider `C[C@@H]1CN(S(C)(=O)=O)CCN1Cc1cc2c(=O)n(C)cc(-c3cccc(NS(C)(=O)=O)c3)c2o1`, for which the values for the IC50 in assay [1] and in assay [2] were 27 nM and 1500 nM, respectively.

In the case of `C[C@@H]1CN(S(C)(=O)=O)CCN1Cc1cc2c(=O)n(C)cc(-c3nc(Cl)c(Cl)n3CC3CCOCC3)c2o1`, the IC50 in assay [1] was determined as 150 nM; in assay [2] it was 8800 nM.
